{
  "source": "patent US11162063B2",
  "about": "“Methods and apparatus for conditioning cell populations for cell therapies” (THE BOARD OF REGENTS OF THE UNIVERSITY OF TEXAS SYSTEM, priority 2015, dated 2021)",
  "key": {"[1]": {"test_system": "TNF-α secretion by activated splenocytes", "experiment": "TNF-α cytokine suppression assay, MSC co-culture with LPS or PHA-activated splenocytes", "assay_type": "cell-based, mouse", "details": "10 μM; for effect on the ability of shear treated MSC to suppress TNF-α production: six MSC donor lines", "description": "FIG. 22 illustrates TNF-α cytokine suppression assays that highlight functional enhancement of MSC immunomodulation. Human MSCs preconditioned by mechanical force (15 dyne/cm2 shear stress for 3 hrs) are placed in static co-culture with lipopoly-saccharide (LPS) or phytohaemagglutinin (PHA)-activated splenocytes including macrophages, neutrophils, NK, B, and T cells. […] Lower values correspond to greater anti-inflammatory potency. hBM MSC, human bone marrow MSC; hAF MSC, amniotic fluid MSC (indicated by a “*” in graph); hAD MSC, adipose-derived MSC (indicated by a “^” in graph). P-values calculated by paired t-test, equal variance.\n(§1) Similarly it was determined utilizing commercially available ELISAs that the media from human MSCs cultures that had been subject to fluid shear stress also contained immunomodulatory proteins, such as prostaglandin E2. In addition, Western blotting confirmed elevated protein levels (translation) of COX2, TSG6, and IL1RN. Actin protein expression levels, which are constant, were used as a control for baseline protein expression. […] It was also determined that this induction could be abrogated by the addition of 10 uM of the NF-kappaB antagonist BAY11-7085 (FIG. 21). Furthermore by utilizing commercially available ELISAs, it was determined that the media from human MSCs cultures that had been subject to fluid shear stress for as little as 3 hours had immunosuppressive activity, as evidenced by the 10-50% reduction in TNF-α when treated hMSCs were co-cultured with activated immune cells from the spleen (FIG. 22)."}, "[2]": {"test_system": "COX2 protein in human MSC", "experiment": "Western blot of intracellular COX2 protein in shear stressed MSCs", "assay_type": "cell-based", "details": "10 μM, 8 hours of fluid shear stress", "description": "A pilot study was conducted to provide proof of principle that fluid shear stress can be used to condition stem cells, alter gene expression, and enhance functional activities. To exemplify the conditioning activity of shear stress of the type provided by the present system, but on a much smaller analytical scale, force (shear stress) was applied using custom fabricated slides or IBIDI® small-scale microfluidics channel slides obtained from IBIDI, LLC. (Verona, Wis., USA). Human samples were harvested from bone marrow (BM), amniotic fluid (AF), or adipose (AD) tissue, processed for isolation and expansion of hMSC, and stored frozen. Frozen hMSCs were thawed and seeded into T225 cell culture flasks with 50 ml Minimum Essential Medium (MEM-α) (20% FBS, 5% Penicillin/Streptomycin, 5% Glutamine). The media was replaced every 3-4 days. hMSCs were maintained in culture until they were almost 100% confluent. […] The number of live cells present was determined using trypan blue dye exclusion. Live cell counts were determined on a hemacytometer and the cells were resuspended to obtain the desired concentration for each assay (see Table 1). […]\nSimilarly it was determined utilizing commercially available ELISAs that the media from human MSCs cultures that had been subject to fluid shear stress also contained immunomodulatory proteins, such as prostaglandin E2. […]"}, "[3]": {"test_system": "human amniotic fluid MSC", "experiment": "Priming agents combined with shear stress, anti-inflammatory signaling in hAF MSC", "assay_type": "cell-based", "description": "FIG. 24 illustrates that priming agents complement shear-induced anti-inflammatory signaling. Darkened bars represent treatment combinations that indicate a substantial induction of the pathway by shear stress and cytokines (IFN-γ, 20 ng/ml; TNF-α, 50 ng/ml). In this low-performance human amniotic MSC line, TSG6 was induced by shear stress only. IDO was induced by IFN-γ only. hAF MSC, human amniotic fluid MSC.\nas §1"}},
  "note": "Entries after “also recorded” stand apart in the source; their conditions may differ.",
  "data": [
    {"compound": "CS(=O)(=O)Nc1ccc([N+](=O)[O-])cc1OC1CCCCC1", "note": "[NS-398]", "values": [
      {"measurement": "effect on the ability of shear treated MSC to suppress TNF-α production", "setting": "[1]", "result": "abrogate the positive effects of shear stress"}
    ]},
    {"compound": "CCCCC(C)(C)C(O)C=CC1C(O)CC(=O)C1CC=CCCCC(=O)O", "note": "(stereo not shown) [dmPGE2, 16,16′-dimethyl prostaglandin E2]", "values": [
      {"measurement": "effect of ectopic agent on TNF-α production", "setting": "[1]; compared with sheared MSCs", "result": "reduced TNF-α to levels produced in the presence of sheared MSCs; also recorded: mimics MSC suppression"}
    ]},
    {"compound": "CC(C)(C)c1ccc(S(=O)(=O)/C=C/C#N)cc1", "note": "[BAY11-7085]", "values": [
      {"measurement": "effect on shear-induced COX2 protein", "setting": "[2]", "result": "abrogated; also recorded: reduced"},
      {"measurement": "effect on the ability of shear treated MSC to suppress TNF-α production", "setting": "[1]", "result": "abrogate the positive effects of shear stress"}
    ]},
    {"compound": "COc1ccc2c(c1)c(CC(=O)O)c(C)n2C(=O)c1ccc(Cl)cc1", "note": "[Indomethacin]", "values": [
      {"measurement": "effect on the ability of shear treated MSC to suppress TNF-α production", "setting": "[1]", "result": "abrogate the positive effects of shear stress"}
    ]},
    {"compound": "IFN-γ: cytokine priming agent, 20 ng/ml", "values": [
      {"measurement": "induction of COX2 and HMOX1 in sheared MSCs with added priming agent", "setting": "[3]; IFN-γ 20 ng/ml plus shear stress", "result": "greater induction"},
      {"measurement": "IDO induction", "setting": "[3]; IFN-γ 20 ng/ml, low-performance human amniotic MSC line", "result": "induced"}
    ]}
  ]
}
